This note sets out measurements from paper PMC103669 (BMC Pharmacology, 2002).

Experiment [1] concerns the target opossum alpha-2C adrenergic receptor (Didelphis virginiana, UniProt P35405, S312A/T311V). Nature of the experiment: biochemical.
The target in experiment [2] is T1, opossum alpha-2C adrenergic receptor (Didelphis virginiana, UniProt P35405).
T1 sequence (P35405 1-469): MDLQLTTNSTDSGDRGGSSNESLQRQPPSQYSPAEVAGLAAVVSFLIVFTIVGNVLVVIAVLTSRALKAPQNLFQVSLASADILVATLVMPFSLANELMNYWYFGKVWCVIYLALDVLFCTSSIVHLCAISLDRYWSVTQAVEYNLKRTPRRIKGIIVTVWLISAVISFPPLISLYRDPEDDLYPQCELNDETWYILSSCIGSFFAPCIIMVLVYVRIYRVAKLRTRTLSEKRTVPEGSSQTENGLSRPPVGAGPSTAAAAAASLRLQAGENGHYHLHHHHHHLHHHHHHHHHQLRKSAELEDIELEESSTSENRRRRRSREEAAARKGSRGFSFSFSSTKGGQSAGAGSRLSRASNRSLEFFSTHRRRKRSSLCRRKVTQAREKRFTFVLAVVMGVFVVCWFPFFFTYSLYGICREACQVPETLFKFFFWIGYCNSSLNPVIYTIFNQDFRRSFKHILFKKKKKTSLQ
Nature of the experiment: [3H]rauwolscine saturation binding, CHO membranes, filtration.

Experiment [3] addresses T2, opossum alpha-2C adrenergic receptor (Didelphis virginiana, UniProt P35405, S309A/S310A/S312A/T311V). Description: biochemical.
For experiment [4], the target named is T2, opossum alpha-2C adrenergic receptor. Description: biochemical. This is another data set of the same source.

Each structure is given as a SMILES string.

T2 sequence (P35405 whole entry S309A/S310A/T311V/S312A): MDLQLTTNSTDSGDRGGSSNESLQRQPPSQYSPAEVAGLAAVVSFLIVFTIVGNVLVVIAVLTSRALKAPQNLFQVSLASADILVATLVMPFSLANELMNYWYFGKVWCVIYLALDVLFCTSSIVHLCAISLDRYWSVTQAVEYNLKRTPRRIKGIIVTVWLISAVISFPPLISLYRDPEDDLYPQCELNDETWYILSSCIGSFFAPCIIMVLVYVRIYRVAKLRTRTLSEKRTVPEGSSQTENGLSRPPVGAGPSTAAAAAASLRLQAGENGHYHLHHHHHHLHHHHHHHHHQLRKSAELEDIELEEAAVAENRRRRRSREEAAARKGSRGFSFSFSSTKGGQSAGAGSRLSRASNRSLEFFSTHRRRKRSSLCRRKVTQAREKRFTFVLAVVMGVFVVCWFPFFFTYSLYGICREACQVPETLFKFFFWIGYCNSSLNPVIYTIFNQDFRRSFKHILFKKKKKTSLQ
Sequence of opossum alpha-2C adrenergic receptor (Didelphis virginiana, UniProt P35405, S312A/T311V) (P35405 whole entry T311V/S312A): as the sequence (P35405 whole entry S309A/S310A/T311V/S312A) above, with A309S, A310S counted along it

For the compound `COC(=O)[C@H]1[C@H]2C[C@H]3c4[nH]c5ccccc5c4CCN3C[C@H]2CC[C@@H]1O` [[^3H]rauwolscine], the results for the Kd in experiment [1], in experiment [2] and in experiment [3] were 0.105 ± 0.005 nM, 0.113 ± 0.008 nM and 0.118 ± 0.012 nM, respectively.
On to `NC[C@H](O)c1ccc(O)c(O)c1` [norepinephrine], for which the affinity in experiment [4] corresponds to a Ki of 71 ± 5 nM.
